Consider 23 compounds from US20260317356A1, “SMALL MOLECULE MODULATORS OF OGG1” (AZKARRA THERAPEUTICS, INC., priority 2023, published 2026).

pIC50: −log10 of the molar value.

This assay deals with hOGG1 (Homo sapiens, UniProt O15527). The assay can be described thus: Biochemical fluorescence assay to measure enzymatic activity of hOGG1 (OGG1/APEX IC50). More on the design: Protein His-hOGG1 (12-323) was prepared; His (N); host or cells: E. coli. Conditions: 1 nM OGG1+2 nM APEX+6 nM dsDNA (8-oxo-dG substrate); pH 7.5; RT 40 min; read-out: OGG1/APEX IC50. The procedure: Biological Example 1: Biochemical Assay to Measure Enzymatic Activity of hOGG1 (OGG1/APEX IC50)
Chain of hOGG1 (O15527 12-323): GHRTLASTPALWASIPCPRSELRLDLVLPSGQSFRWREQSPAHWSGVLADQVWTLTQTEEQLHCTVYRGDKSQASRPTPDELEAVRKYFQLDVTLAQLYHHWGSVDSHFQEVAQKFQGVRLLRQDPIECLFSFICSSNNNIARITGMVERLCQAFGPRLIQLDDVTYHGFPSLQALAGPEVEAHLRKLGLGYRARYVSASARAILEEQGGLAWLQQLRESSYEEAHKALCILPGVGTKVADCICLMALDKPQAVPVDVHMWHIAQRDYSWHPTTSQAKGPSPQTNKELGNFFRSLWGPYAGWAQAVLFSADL
The reported fluorescence-based assay (Donley et al ACS Chem Biol 2015; 10 (10), 2334-2343) was modified to include hAPE1/APEX1 protein. The oligonucleotide substrate with 8-oxo-dG lesion at X was prepared (LGC Biosearch, Petaluma, CA):
Protein His-hOGG1 (12-323) was prepared by Chempartner Corporation via E. coliexpression and purification by Ni-NTA and S200 column to afford 95% purity by SDS-PAGE and SEC-HPLC analysis and hAPE1/APEX1 was purchased (SinoBiological). The assay was run in 384-well plates following the general procedure: (1) compound dilution; (2) addition of hOGG1/APEX1 to compound wells; (3) addition of DNA substrate to compound wells; (4) read Ex520/Em600 (TAMRA) fluorescence signal after 40 minutes; (5) calculate % inhibition/compound concentration; (6) calculate dose-response curve and IC50 value.
• (1) 20 mM of compound solution was prepared in DMSO; • (2) Compounds were diluted to 10 mM in DMSO in ECHO Source plate (Labcyte PP-0200), by mixing […] DMSO; • (3) 4× dilution of compounds, for 10 points, by mixing […] DMSO; and • (4) Dispensed 150 nL compounds to assay plate (Corning 3573) in column 3-22. Dispensed 150 nL DMSO to Min and Max control wells in column 1-2 and column 23-24.
• (1) Assay buffer was prepared (20 mM Tris pH 7.5, 100 mM KCl, 0.1% BSA, 0.01% Tween). • (2) […] buffer was added to Min control wells (Column 1-2). • (3) Enzyme was diluted to 2× with buffer (2 nM OGG1+4 nM APEX1). Dispensed […] (except Min control wells). Shake at 500 rpm at RT for 20 min. • (4) DNA substrate diluted to 2× with buffer (12 nM). Dispensed […]. Final concentration: 1 nM OGG1+2 nM APEX+6 nM dsDNA. Shake at RT for 40 min. • (5) Ex520/Em600 (TAMRA) was read.
• (1) Calculated respective mean of Max and Min control wells. • (2) Converted data to percentage inhibition.
Inhibition (%)=(Max mean−value)/(Max mean−Min mean)×100% • (3) Calculated sigmoidal curve (3-parameter) and IC50 (using GraphPad Prism software).
Take `COc1cc(NC(=O)[C@H]2CC[C@@H](N3Cc4c(C)ccc(C)c4NC3=O)CC2)ccc1C` [Example 25, (1s,4s)-4-(5,8-Dimethyl-2-oxo-1,2-dihydroquinazolin-3(4H)-yl)-N-(3-methoxy-4-methylphenyl)cyclohexanecarboxamide]: the pIC50 was more than 7.00.

`COc1cc(NC(=O)[C@H]2CC[C@@H](N3Cc4c(C)cc(CNS(C)(=O)=O)cc4NC3=O)CC2)ccc1C` [Example 26, (1s,4s)-N-(3-Methoxy-4-methylphenyl)-4-(5-methyl-7-(methylsulfonamidomethyl)-2-oxo-1,2-dihydroquinazolin-3(4H)-yl)cyclohexanecarboxamide]: the pIC50 is more than 7.00. The value for `COc1cc(NC(=O)[C@H]2CC[C@@H](N3Cc4c(C)cc(CNC(C)=O)cc4NC3=O)CC2)ccc1C` [Example 27, (1s,4s)-4-(7-(Acetamidomethyl)-5-methyl-2-oxo-1,2-dihydroquinazolin-3(4H)-yl)-N-(3-methoxy-4-methylphenyl)cyclohexanecarboxamide] was more than 7.00; that for `COc1cc(NC(=O)[C@H]2CC[C@@H](N3Cc4c(C)cc(N5CC(OC)C5)cc4NC3=O)CC2)ccc1C` [Example 29, (1s,4s)-N-(3-Methoxy-4-methylphenyl)-4-(7-(3-methoxyazetidin-1-yl)-5-methyl-2-oxo-1,2-dihydroquinazolin-3(4H)-yl)cyclohexanecarboxamide] was more than 7.00. The same measure for `COc1cc(NC(=O)[C@H]2CC[C@@H](N3Cc4c(C)cc(C#N)cc4NC3=O)CC2)ccc1C` [Example 31, (1s,4s)-4-(7-Cyano-5-methyl-2-oxo-1,2-dihydroquinazolin-3(4H)-yl)-N-(3-methoxy-4-methylphenyl)cyclohexanecarboxamide]: more than 7.00. The same measure for `COc1cc(NC(=O)[C@H]2CC[C@@H](N3Cc4c(C)cnc(Cl)c4NC3=O)CC2)ccc1C` [Example 32, (1s,4s)-4-(8-Chloro-5-methyl-2-oxo-1,2-dihydropyrido[3,4-d]pyrimidin-3(4H)-yl)-N-(3-methoxy-4-methylphenyl)cyclohexanecarboxamide]: more than 7.00; for `COc1cc(NC(=O)[C@H]2CC[C@@H](N3Cc4c(C)cc(C5COC5)cc4NC3=O)CC2)ccc1C` [Example 33, (1s,4s)-N-(3-Methoxy-4-methylphenyl)-4-(5-methyl-7-(oxetan-3-yl)-2-oxo-1,2-dihydroquinazolin-3(4H)-yl)cyclohexanecarboxamide]: more than 7.00. `COc1cc(NC(=O)[C@H]2CC[C@@H](N3Cc4c(C)ccc(N5CC(C)(C#N)C5)c4NC3=O)CC2)ccc1C` [Example 34, (1s,4s)-4-(8-(3-Cyano-3-methylazetidin-1-yl)-5-methyl-2-oxo-1,2-dihydroquinazolin-3(4H)-yl)-N-(3-methoxy-4-methylphenyl)cyclohexanecarboxamide]: the pIC50 was 6.00 to 7.00.

For `COc1cc(NC(=O)[C@@H]2CC[C@@H](N3Cc4c(C)cc(Br)cc4NC3=O)C2)ccc1C` [Example 36, (1R,3R)-3-(7-Bromo-5-methyl-2-oxo-1,2-dihydroquinazolin-3(4H)-yl)-N-(3-methoxy-4-methylphenyl)cyclopentanecarboxamide], the pIC50 was 5.00 to 6.00. As to `COc1cc(NC(=O)[C@H]2CC[C@@H](N3Cc4c(C)cncc4NC3=O)CC2)ccc1C` [Example 37, (1s,4s)-N-(3-Methoxy-4-methylphenyl)-4-(5-methyl-2-oxo-1,2-dihydropyrido[3,4-d]pyrimidin-3(4H)-yl)cyclohexanecarboxamide], the pIC50 was more than 7.00. The same measure for `COc1cc(NC(=O)[C@H]2CC[C@@H](N3Cc4c(C)ccc(N5CC(OC)C5)c4NC3=O)CC2)ccc1C` [Example 38, (1s,4s)-N-(3-Methoxy-4-methylphenyl)-4-(8-(3-methoxyazetidin-1-yl)-5-methyl-2-oxo-1,2-dihydroquinazolin-3(4H)-yl)cyclohexanecarboxamide]: more than 7.00.

`COc1cc(NC(=O)[C@H]2CC[C@@H](N3Cc4c(C)ccc(C5CC5)c4NC3=O)CC2)ccc1C` [Example 39, (1s,4s)-4-(8-Cyclopropyl-5-methyl-2-oxo-1,2-dihydroquinazolin-3(4H)-yl)-N-(3-methoxy-4-methylphenyl)cyclohexanecarboxamide]: the pIC50 was more than 7.00. `COc1cc(NC(=O)[C@H]2CC[C@@H](N3Cc4c(ccc(OCCN(C)C)c4C)NC3=O)CC2)ccc1C` [Example 40, (1s,4s)-4-(6-(2-(Dimethylamino)ethoxy)-5-methyl-2-oxo-1,2-dihydroquinazolin-3(4H)-yl)-N-(3-methoxy-4-methylphenyl)cyclohexanecarboxamide]: the pIC50 was 5.00 to 6.00.

On to `COc1cc(NC(=O)[C@H]2CC[C@@H](N3Cc4c(ccc(N5CCC5)c4C)NC3=O)CC2)ccc1C` [Example 42, (1s,4s)-4-(6-(Azetidin-1-yl)-5-methyl-2-oxo-1,2-dihydroquinazolin-3(4H)-yl)-N-(3-methoxy-4-methylphenyl)cyclohexanecarboxamide], for which the pIC50 is 6.00 to 7.00.

In the case of `COc1cc(NC(=O)[C@H]2CC[C@@H](N3Cc4c(ccnc4C)NC3=O)CC2)ccc1C` [Example 43, (1s,4s)-N-(3-Methoxy-4-methylphenyl)-4-(5-methyl-2-oxo-1,2-dihydropyrido[4,3-d]pyrimidin-3(4H)-yl)cyclohexanecarboxamide], the pIC50 is more than 7.00. The value for `COc1cc(NC(=O)[C@H]2CC[C@@H](N3Cc4c(ccc(N)c4C)NC3=O)CC2)ccc1C` [Example 46, (1s,4s)-4-(6-Amino-5-methyl-2-oxo-1,2-dihydroquinazolin-3(4H)-yl)-N-(3-methoxy-4-methylphenyl)cyclohexanecarboxamide] was 5.00 to 6.00. `COCc1ccc2c(c1C)CN([C@H]1CC[C@@H](C(=O)Nc3ccc(C)c(OC)c3)CC1)C(=O)N2` [Example 48, (1s,4s)-N-(3-Methoxy-4-methylphenyl)-4-(6-(methoxymethyl)-5-methyl-2-oxo-1,2-dihydroquinazolin-3(4H)-yl)cyclohexanecarboxamide]: the pIC50 is 5.00 to 6.00. The same measure for `COc1cc(NC(=O)[C@H]2CC[C@@H](N3Cc4c(ccc(OC5CNC5)c4C)NC3=O)CC2)ccc1C` [Example 49, (1s,4s)-4-(6-(Azetidin-3-yloxy)-5-methyl-2-oxo-1,2-dihydroquinazolin-3(4H)-yl)-N-(3-methoxy-4-methylphenyl)cyclohexanecarboxamide]: 6.00 to 7.00. The value for `COc1cc(NC(=O)[C@H]2CC[C@@H](N3Cc4c(ccc(OCCN5CCOCC5)c4C)NC3=O)CC2)ccc1C` [Example 50, (1s,4s)-N-(3-Methoxy-4-methylphenyl)-4-(5-methyl-6-(2-morpholinoethoxy)-2-oxo-1,2-dihydroquinazolin-3(4H)-yl)cyclohexanecarboxamide] was 5.00 to 6.00; that for `COc1cc(NC(=O)[C@H]2CC[C@@H](N3Cc4c(ccc(OC)c4C)NC3=O)CC2)ccc1C` [Example 51, (1s,4s)-N-(3-Methoxy-4-methylphenyl)-4-(6-methoxy-5-methyl-2-oxo-1,2-dihydroquinazolin-3(4H)-yl)cyclohexanecarboxamide] was 6.00 to 7.00; that for `COc1cc(NC(=O)[C@H]2CC[C@@H](N3Cc4c(C)ccc(CN(C)C)c4NC3=O)CC2)ccc1C` [Example 52, (1s,4s)-4-(8-((Dimethylamino)methyl)-5-methyl-2-oxo-1,2-dihydroquinazolin-3(4H)-yl)-N-(3-methoxy-4-methylphenyl)cyclohexanecarboxamide] was more than 7.00. With `C=Cc1ccc2c(c1C)CN([C@H]1CC[C@@H](C(=O)Nc3ccc(C)c(OC)c3)CC1)C(=O)N2` [Example 53, (1s,4s)-N-(3-methoxy-4-methylphenyl)-4-(5-methyl-2-oxo-6-vinyl-1,2-dihydroquinazolin-3(4H)-yl)cyclohexanecarboxamide], the pIC50 was 5.00 to 6.00. As for `COc1cc(NC(=O)[C@H]2CC[C@@H](N3Cc4c(C)ccc(CO)c4NC3=O)CC2)ccc1C` [Example 54, (1s,4s)-4-(8-(Hydroxymethyl)-5-methyl-2-oxo-1,2-dihydroquinazolin-3(4H)-yl)-N-(3-methoxy-4-methylphenyl)cyclohexanecarboxamide], the pIC50 was more than 7.00.
